# PubChem BioAssay AID256 (DTP/NCI, 2004)
# “And” between values parts separate entries of the source, which are not always exact repeats. Equal values may be shown once. Inconclusive results and toxic doses are left out.
# Test system: CD2F1 mice, L1210 leukemia ip, survival T/C
# Test: NCI In Vivo Anticancer Drug Screen. Data for tumor model L1210 Leukemia (intraperitoneal) in CD2F1 (CDF1) mice
# Settings: higher = longer survival
# Method in brief: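 Tumor-bearing mice (transplanted tumor) were split into treated and vehicle control groups, and the measured endpoint of each treated group was divided by that of its vehicle controls.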
# [1] = endpoint: mean survival time, dose: 75.0 mg/kg/injection, schedule: Q01DX001 (ip), vehicle: saline
# [2] = endpoint: mean survival time, dose: 150.0 mg/kg/injection, schedule: Q01DX001 (ip), vehicle: saline
# [3] = endpoint: mean survival time, dose: 100.0 mg/kg/injection, schedule: Q01DX001 (ip), vehicle: saline with Tween-80
# [4] = endpoint: mean survival time, dose: 200.0 mg/kg/injection, schedule: Q01DX001 (ip), vehicle: saline with Tween-80
# [5] = endpoint: mean survival time, dose: 300.0 mg/kg/injection, schedule: Q01DX001 (ip), vehicle: saline
# [6] = endpoint: mean survival time, dose: 100.0 mg/kg/injection, schedule: Q04DX003 (ip), vehicle: saline with Tween-80
# [7] = endpoint: mean survival time, dose: 200.0 mg/kg/injection, schedule: Q04DX003 (ip), vehicle: saline with Tween-80
# [8] = endpoint: mean survival time, dose: 400.0 mg/kg/injection, schedule: Q04DX003 (ip), vehicle: saline with Tween-80
# [9] = endpoint: mean survival time, dose: 200.0 mg/kg/injection, schedule: Q01DX009 (ip), vehicle: saline with Tween-80
# [10] = endpoint: mean survival time, dose: 400.0 mg/kg/injection, schedule: Q01DX009 (ip), vehicle: saline with Tween-80
# [11] = endpoint: mean survival time, dose: 100.0 mg/kg/injection, schedule: Q04DX002 (ip), vehicle: saline with Tween-80
# [12] = endpoint: mean survival time, dose: 200.0 mg/kg/injection, schedule: Q04DX002 (ip), vehicle: saline with Tween-80
compound,measurement,setting,value
O=C(O)CC(=O)O.[NH-]C1CCCCC1[NH-].[Pt+2] (centres undefined),T/C,"endpoint: mean survival time, dose: 1.25 mg/kg/injection, schedule: Q01DX009 (ip), vehicle: saline sonified",110 % of control
same,T/C,"endpoint: mean survival time, dose: 2.5 mg/kg/injection, schedule: Q01DX009 (ip), vehicle: saline sonified",119 % of control
same,T/C,"endpoint: mean survival time, dose: 10.0 mg/kg/injection, schedule: Q01DX001 (ip), vehicle: suspension in saline",124 % of control
same,T/C,"endpoint: mean survival time, dose: 10.0 mg/kg/injection, schedule: Q01DX009 (oral), vehicle: saline",98 % of control
same,T/C,"endpoint: mean survival time, dose: 20.0 mg/kg/injection, schedule: Q01DX001 (oral), vehicle: saline",98 % of control
same,T/C,"endpoint: mean survival time, dose: 20.0 mg/kg/injection, schedule: Q01DX009 (oral), vehicle: saline",109 % of control
same,T/C,"endpoint: mean survival time, dose: 40.0 mg/kg/injection, schedule: Q01DX001 (oral), vehicle: saline",98 % of control
same,T/C,"endpoint: mean survival time, dose: 40.0 mg/kg/injection, schedule: Q01DX009 (oral), vehicle: saline",100 % of control
same,T/C,"endpoint: mean survival time, dose: 80.0 mg/kg/injection, schedule: Q01DX001 (oral), vehicle: saline",100 % of control
same,T/C,"endpoint: mean survival time, dose: 160.0 mg/kg/injection, schedule: Q01DX001 (oral), vehicle: saline",100 % of control
same,T/C,"endpoint: mean survival time, dose: 320.0 mg/kg/injection, schedule: Q01DX001 (oral), vehicle: saline",100 % of control
same,T/C,"endpoint: mean survival time, dose: 320.0 mg/kg/injection, schedule: Q01DX009 (oral), vehicle: saline",120 % of control
same,T/C,"endpoint: median survival time, dose: 4.0 mg/kg/injection, schedule: Q01DX009 (ip), vehicle: dextrose",110 % of control
COc1ccc2c(c1OC(C)=O)-c1cc(O)cc3c1C(C2)N(C(=O)CN(CCCl)CCCl)CC3 (centres undefined),T/C,"endpoint: mean survival time, dose: 6.25 mg/kg/injection, schedule: Q04DX003 (ip), vehicle: DMSO",98 % of control
same,T/C,"endpoint: mean survival time, dose: 12.5 mg/kg/injection, schedule: Q04DX003 (ip), vehicle: DMSO",91 % of control
same,T/C,"endpoint: mean survival time, dose: 25.0 mg/kg/injection, schedule: Q04DX003 (ip), vehicle: DMSO",100 % of control
same,T/C,"endpoint: mean survival time, dose: 50.0 mg/kg/injection, schedule: Q04DX003 (ip), vehicle: DMSO",102 % of control
C/C(=N\NC(=S)N1CC2CCC(CC2)C1)c1cccc(C)n1,T/C,"endpoint: median survival time, dose: 3.12 mg/kg/injection, schedule: Q01DX005 (ip), vehicle: saline with Tween-80",103 % of control
same,T/C,"endpoint: median survival time, dose: 6.25 mg/kg/injection, schedule: Q01DX005 (ip), vehicle: saline with Tween-80",108 % of control
same,T/C,"endpoint: median survival time, dose: 12.5 mg/kg/injection, schedule: Q01DX005 (ip), vehicle: saline with Tween-80",119 % of control
same,T/C,"endpoint: median survival time, dose: 25.0 mg/kg/injection, schedule: Q01DX005 (ip), vehicle: saline with Tween-80",102 % of control and 108 % of control
COC(=O)c1cccc2c1ccc1ccccc12,T/C,[1],91 % of control
same,T/C,[2],95 % of control
CC12CC=CCC1CCC/C2=N/O (centres undefined),T/C,[3],113 % of control
same,T/C,"endpoint: mean survival time, dose: 100.0 mg/kg/injection, schedule: Q04DX003 (ip), vehicle: acetone",96 % of control
same,T/C,[4],97 % of control
same,T/C,"endpoint: mean survival time, dose: 200.0 mg/kg/injection, schedule: Q04DX003 (ip), vehicle: acetone",98 % of control
same,T/C,"endpoint: mean survival time, dose: 400.0 mg/kg/injection, schedule: Q01DX001 (ip), vehicle: saline with Tween-80",103 % of control
same,T/C,"endpoint: mean survival time, dose: 400.0 mg/kg/injection, schedule: Q04DX003 (ip), vehicle: acetone",96 % of control
CCC(C)NCCO (centres undefined),T/C,[1],96 % of control
same,T/C,[2],104 % of control
same,T/C,[5],104 % of control
COC(=O)C12OCC34C(CC5C(C)=CC(=O)C(O)C5(C)C3C(O)C1O)OC(=O)C(OC(=O)CC(C)C)C24 (centres undefined),T/C,"endpoint: mean survival time, dose: 0.12 mg/kg/injection, schedule: Q01DX009 (ip), vehicle: saline + alcohol",101 % of control
same,T/C,"endpoint: mean survival time, dose: 0.13 mg/kg/injection, schedule: Q01DX009 (ip), vehicle: saline + alcohol",102 % of control
same,T/C,"endpoint: mean survival time, dose: 0.25 mg/kg/injection, schedule: Q01DX009 (ip), vehicle: saline + alcohol",100 % of control and 102 % of control
same,T/C,"endpoint: mean survival time, dose: 0.5 mg/kg/injection, schedule: Q01DX009 (ip), vehicle: saline + alcohol",113 % of control and 95 % of control
same,T/C,"endpoint: mean survival time, dose: 1.0 mg/kg/injection, schedule: Q01DX009 (ip), vehicle: saline + alcohol",101 % of control and 105 % of control
same,T/C,"endpoint: mean survival time, dose: 2.0 mg/kg/injection, schedule: Q01DX009 (ip), vehicle: saline + alcohol",97 % of control and 104 % of control
same,T/C,"endpoint: mean survival time, dose: 4.0 mg/kg/injection, schedule: Q01DX009 (ip), vehicle: saline + alcohol",104 % of control and 109 % of control
O=C(CCC(=O)c1cccc([N+](=O)[O-])c1)NNc1ccc([N+](=O)[O-])cc1[N+](=O)[O-],T/C,[6],98 % of control
same,T/C,[7],98 % of control
same,T/C,[8],102 % of control
O=C(NO)c1cc(O)c(O)c(O)c1,T/C,"endpoint: mean survival time, dose: 100.0 mg/kg/injection, schedule: Q01DX009 (ip), vehicle: water",117 % of control
same,T/C,"endpoint: mean survival time, dose: 200.0 mg/kg/injection, schedule: Q01DX009 (ip), vehicle: distilled water + Tween-80",154 % of control
same,T/C,"endpoint: mean survival time, dose: 200.0 mg/kg/injection, schedule: Q01DX009 (ip), vehicle: water",156 % of control
same,T/C,"endpoint: mean survival time, dose: 400.0 mg/kg/injection, schedule: Q01DX009 (ip), vehicle: distilled water + Tween-80",104 % of control
same,T/C,"endpoint: mean survival time, dose: 400.0 mg/kg/injection, schedule: Q01DX009 (ip), vehicle: water",100 % of control
same,T/C,"endpoint: mean survival time, dose: 800.0 mg/kg/injection, schedule: Q01DX009 (ip), vehicle: distilled water + Tween-80",116 % of control
same,T/C,"endpoint: median survival time, dose: 25.0 mg/kg/injection, schedule: Q01DX009 (ip), vehicle: distilled water + Tween-80",107 % of control
same,T/C,"endpoint: median survival time, dose: 50.0 mg/kg/injection, schedule: Q01DX009 (ip), vehicle: distilled water + Tween-80",120 % of control
same,T/C,"endpoint: median survival time, dose: 200.0 mg/kg/injection, schedule: Q01DX009 (ip), vehicle: distilled water + Tween-80",158 % of control and 162 % of control
same,T/C,"endpoint: median survival time, dose: 400.0 mg/kg/injection, schedule: Q01DX009 (ip), vehicle: distilled water + Tween-80",90 % of control
O=[N+]([O-])c1cc(S(=O)(=O)O)cc(S(=O)(=O)O)c1O,T/C,"endpoint: mean survival time, dose: 100.0 mg/kg/injection, schedule: Q04DX002 (ip), vehicle: saline",100 % of control
same,T/C,"endpoint: mean survival time, dose: 200.0 mg/kg/injection, schedule: Q04DX002 (ip), vehicle: saline",107 % of control
same,T/C,"endpoint: mean survival time, dose: 400.0 mg/kg/injection, schedule: Q04DX002 (ip), vehicle: saline",103 % of control
Clc1ccc(CN2CN(Cc3ccc(Cl)cc3)CN(Cc3ccc(Cl)cc3)C2)cc1,T/C,"endpoint: mean survival time, dose: 100.0 mg/kg/injection, schedule: Q01DX009 (ip), vehicle: saline with Tween-80",95 % of control
same,T/C,[6],100 % of control
same,T/C,[9],97 % of control
same,T/C,[7],97 % of control
same,T/C,[10],100 % of control
same,T/C,[8],97 % of control
CCCCC(C(=O)OCC)C(=O)c1ccccc1 (centres undefined) (tested in a mixture with another compound),T/C,[6],100 % of control
O=C(Nc1cccc(Cl)c1)c1ccc(C(=O)Nc2cccc(Cl)c2)cc1,T/C,[1],100 % of control
same,T/C,[2],98 % of control
same,T/C,[5],102 % of control
CN(Cc1cnc(N)c(C#N)n1)c1ccc(C(=O)NC(CCC(=O)OC(C)(C)C)C(=O)OC(C)(C)C)cc1 (centres undefined),T/C,[11],91 % of control
same,T/C,[12],91 % of control
same,T/C,"endpoint: mean survival time, dose: 400.0 mg/kg/injection, schedule: Q04DX002 (ip), vehicle: saline with Tween-80",102 % of control
ClC1C(c2ccccc2)=C(c2ccccc2)c2ccccc21 (centres undefined),T/C,[3],87 % of control
same,T/C,[4],91 % of control
same,T/C,[9],101 % of control
same,T/C,[10],98 % of control
CCOC(=O)Nc1cc2c(c(N)n1)N=C(c1ccccc1)CN2,T/C,"endpoint: median survival time, dose: 0.63 mg/kg/injection, schedule: Q01DX009 (ip), vehicle: saline with Tween-80",118 % of control and 101 % of control
same,T/C,"endpoint: median survival time, dose: 0.75 mg/kg/injection, schedule: Q01DX009 (ip), vehicle: saline with Tween-80",106 % of control
c1ccc(CSc2ncnc3nc[nH]c23)nc1,T/C,"endpoint: mean survival time, dose: 133.0 mg/kg/injection, schedule: Q04DX003 (ip), vehicle: saline with Tween-80",117 % of control
same,T/C,"endpoint: mean survival time, dose: 300.0 mg/kg/injection, schedule: Q04DX003 (ip), vehicle: saline with Tween-80",102 % of control
COc1c2c(c(OC)c3c1C(=O)c1ccccc1C3=O)CC(O)CC2 (centres undefined),T/C,"endpoint: mean survival time, dose: 12.5 mg/kg/injection, schedule: Q01DX009 (ip), vehicle: Klucel (hydroxypropylcellulose) (HPC)",92 % of control
same,T/C,"endpoint: mean survival time, dose: 25.0 mg/kg/injection, schedule: Q01DX009 (ip), vehicle: Klucel (hydroxypropylcellulose) (HPC)",94 % of control
same,T/C,"endpoint: mean survival time, dose: 50.0 mg/kg/injection, schedule: Q01DX009 (ip), vehicle: Klucel (hydroxypropylcellulose) (HPC)",92 % of control
same,T/C,"endpoint: mean survival time, dose: 100.0 mg/kg/injection, schedule: Q01DX009 (ip), vehicle: Klucel (hydroxypropylcellulose) (HPC)",88 % of control
same,T/C,"endpoint: mean survival time, dose: 200.0 mg/kg/injection, schedule: Q01DX009 (ip), vehicle: Klucel (hydroxypropylcellulose) (HPC)",90 % of control
CCCCOC(=O)Cc1c(C)[nH]c2ccc(-c3ccccc3)cc12,T/C,"endpoint: mean survival time, dose: 50.0 mg/kg/injection, schedule: Q04DX002 (ip), vehicle: saline with Tween-80",102 % of control
same,T/C,[11],102 % of control
same,T/C,[12],97 % of control
